The results in this text go back to US20090012144A1 (priority 2000, published 2009).

Series [1] deals with Amblyomma hebraeum nymphs. Description: Amblyomma hebraeum (EH) tick nymphs/dip treatment, determination of the ED50. In kind it is in vivo. As to conditions: 1 min immersion, ecdysis rate after 4 weeks; not determinable = 50% not reached at 1000 ppm. Here is the method:
[table] 20 mg of active compound are dissolved in 1 ml of dimethyl sulphoxide. To prepare a suitable preparation, the solution of active compound is diluted with water to the concentration desired in each case. For the determination of the ED50 value, a dose-activity curve with the concentration spectrum 1000, 300, 100, 30, 10, 3, 1, 0.3, 0.1, 0.03, 0.01 ppm is prepared. 10 nymphs which have sucked themselves full are immersed for 1 min into the preparation of active compound to be tested. The animals are transferred to petri dishes (Ø 9.5 cm) fitted with filter paper discs and covered. After the nymphs have remained in a controlled-environment cabinet for 4 weeks, the ecdysis rate is determined. 100% means that none of the animals have undergone normal ecdysis. 0% means that all animals have undergone ecdysis. The data are calculated by a 4-parameter logistic curve fit using XLfit (ID Business Solutions Ltd.). If at 1000 ppm 50% mortality has not been reached, the ED50 is judged to be not determinable.

The nature of series [2]: log P determination by HPLC (reversed-phase C 18), EEC Directive 79/831 Annex V.A8. As to conditions: HPLC, pH 2.3, 43° C.; read-out: log P (pH 2.3). In kind it is physicochemical. Here is the method:
The log P values given in the tables and Preparation Examples above are determined in accordance with EEC Directive 79/831 Annex V.A8 by HPLC (High Performance Liquid Chromatography) using a reversed-phase column (C 18). Temperature: 43° C. […]
Calibration was carried out using unbranched alkan-2-ones (having 3 to 16 carbon atoms) with known log P values (determination of the log P values by the retention times using linear interpolation between two successive […]).

The subject of another series is Heliothis armigera. The series is described as follows: Heliothis armigera test (soya bean shoots, dip). In kind it is in vivo. Here is the method:
[table] To prepare a suitable preparation of active compound, 1 part by weight of active compound is mixed with the stated amounts of solvent and emulsifier, and the concentrate is diluted with emulsifier-containing water to the desired concentration. Soya bean shoots (Glycine max) are treated by being dipped into the preparation of active compound of the desired concentration and are populated with caterpillars of the cotton bollworm (Heliothis armigera) while the leaves are still moist. After the desired period of time, the kill in % is determined. 100% means that all caterpillars have been killed; 0% means that none of the caterpillars have been killed.

A further series has as its system Heliothis virescens. The series is described as follows: Heliothis virescens test (soya bean shoots, dip). The class given is in vivo. As for the experimental part:
[table] To prepare a suitable preparation of active compound, 1 part by weight of active compound is mixed with the stated amounts of solvent and emulsifier, and the concentrate is diluted with emulsifier-containing water to the desired concentration. Soya bean shoots (Glycine max) are treated by being dipped into the preparation of active compound of the desired concentration and are populated with Heliothis virescens caterpillars while the leaves are still moist. After the desired period of time, the kill in % is determined. 100% means that all caterpillars have been killed; 0% means that none of the caterpillars have been killed.

For `Fc1cccc(F)c1C1=N[C@@H](c2ccc(-c3ccc(OC(F)(F)F)cc3)cc2)CC1` [drawing 113], the “ED 50 (ppm)” value in series [1] is 0.20 ppm.

With `CCOc1cc(C(C)(C)C)ccc1[C@H]1CCC(c2c(F)cccc2F)=N1` [drawing 110], the “ED 50 (ppm)” value in series [1] is recorded as 0.14 ppm.

Broadly, the melting point is the temperature, or range, at which the solid turns liquid. Take `CC(C)(C)[Si](C)(C)Oc1ccc(-c2ccc([C@H]3CCC(c4c(F)cccc4F)=N3)cc2)cc1` [I-8, (2R)-2-(4′-{[tert-butyl(dimethyl)silyl]oxy}-1,1′-biphenyl-4-yl)-5-(2,6-difluorophenyl)-3,4-dihydro-2H-pyrrole]: the melting point was found to be 33 °C. For the same compound, the chromatographic logP in series [2] was determined as 6.2.

On to `Fc1cccc(F)c1C1=NC(c2ccc(-c3ccc(OC(F)(F)F)cc3)cc2)CC1` (centres unmarked) [drawing 112], for which the “ED 50 (ppm)” value in series [1] worked out at 0.58 ppm.

With `Fc1cccc(F)c1C1=N[C@H](c2ccc(-c3ccc(SC(F)(F)F)cc3)cc2)CC1` [drawing 62, reference compound], in the series with Heliothis armigera (1.6 ppm), the “Kill rate in % after 6 d” value stood at 0%.

Consider `Fc1cccc(F)c1C1=N[C@H](c2ccc(-c3ccc(OC(F)(F)F)cc3)cc2)CC1` [drawing 65], for which the “Kill rate in % after 6 d” value with Heliothis virescens (8 ppm) turned out to be 0%.

On to `OC1([C@H]2CCC(c3c(F)cccc3F)=N2)C=CC(c2ccccc2)=CC1` (stereo partly drawn) [I-9, 4′-[(2R)-5-(2,6-difluorophenyl)-3,4-dihydro-2H-pyrrol-2-yl]-1,1′-biphenyl-4′-ol], for which the melting point was determined as 217 °C.

In the case of `Fc1cccc(F)c1C1=N[C@H](c2ccc(-c3ccc(OC(F)(F)F)cc3)cc2)CC1` [drawing 60, reference compound], the “Kill rate in % after 6 d” value in the series on Heliothis armigera (8 ppm) is reported as 0%.

With `Fc1cccc(F)c1C1=N[C@@H](c2ccc(-c3ccc(OC(F)(F)F)cc3)cc2)CC1` [drawing 59], the “Kill rate in % after 6 d” value in the series on Heliothis armigera (8 ppm) came out at 100%.

In the case of `Fc1cccc(F)c1C1=N[C@@H](c2ccc(-c3ccc(SC(F)(F)F)cc3)cc2)CC1` [drawing 66], the “Kill rate in % after 6 d” value in the series on Heliothis virescens (1.6 ppm) was 100%.

Regarding `Fc1cccc(F)c1C1=N[C@@H](c2ccc(-c3ccc(SC(F)(F)F)cc3)cc2)CC1` [drawing 61], the “Kill rate in % after 6 d” value in the series on Heliothis armigera (1.6 ppm) stood at 100%.

`[O-][S+](c1ccc(-c2ccc([C@H]3CCC(c4c(F)cccc4F)=N3)cc2)cc1)C(F)(F)F` (some centres unmarked) [I-10] displayed a melting point of 146 to 148 °C.

For `Fc1cccc(F)c1C1=N[C@@H](c2ccc(-c3ccc(OC(F)(F)F)cc3)cc2)CC1` [drawing 64], the “Kill rate in % after 6 d” value in the series on Heliothis virescens (0.32 ppm) was 90%.

In turn, `O=S(=O)(c1ccc(-c2ccc([C@H]3CCC(c4c(F)cccc4F)=N3)cc2)cc1)C(F)F` [I-14] registered a melting point of 148 to 150 °C.

`Fc1cccc(F)c1C1=N[C@H](c2ccc(-c3ccc(SC(F)(F)F)cc3)cc2)CC1` [drawing 67]: in the series on Heliothis virescens (1.6 ppm), the “Kill rate in % after 6 d” value stood at 15%.

Take `Fc1cccc(F)c1C1=NC(c2ccc(-c3ccc(OC(F)(F)F)cc3)cc2)CC1` (centres unmarked) [drawing 63]: the “Kill rate in % after 6 d” value with Heliothis virescens (0.32 ppm) is recorded as 20%.

As for `Fc1cccc(F)c1C1=N[C@H](c2ccc(-c3ccc(OC(F)(F)F)cc3)cc2)CC1` [drawing 114], in series [1], the “ED 50 (ppm)” value is 549.86 ppm.

`CCOc1cc(C(C)(C)C)ccc1[C@@H]1CCC(c2c(F)cccc2F)=N1` [drawing 111]: the “ED 50 (ppm)” value in series [1] is listed as “notdeterminable”.

Consider `CCOc1cc(C(C)(C)C)ccc1C1CCC(c2c(F)cccc2F)=N1` (centres unmarked) [drawing 109], for which the “ED 50 (ppm)” value in series [1] is 0.27 ppm.
